Data published in patent publication EP4813970A1, “L-SERINE HAVING REDUCED HEAVY METAL AMOUNT, PHARMACEUTICAL COMPOSITION THEREOF, PREPARATION METHOD THEREFOR, AND USE THEREOF” (priority 2023, dated 2025).
Where two headings read alike, the source gives them in different places.

What was measured:
HT22 cells = experiment: Mitochondrial membrane potential by JC-1 staining after DMNQ damage; type: cell-based
Experimental: HT22 cells were cultured under 37°C and 5% CO2 conditions using DMEM medium containing 10% FBS, 100 unit/mL penicillin, and 100 µg/mL streptomycin. […] After checking the condition of the cells, 5 µM JC-1 was added to the medium and the cells were stained for 30 minutes under 37°C and 5% CO2 conditions, treated with 0.25% trypsin-EDTA and the cells were collected in an e-tube, washed twice with PBS, and analyzed with Attune NxT. The effect of L-serine, which contains class 1 heavy metals, on mitochondria, which affects both neurological diseases and metabolic diseases, was confirmed depending on the concentration of class 1 heavy metals. DMNQ causes oxidative stress and excessive production of ROS, which induces mitochondrial membrane potential depolarization, thereby resulting in mitochondrial dysfunction and apoptosis. In mitochondria, an electrochemical proton gradient is created through the mitochondrial membrane, which produces ATP, and when mitochondria are damaged and apoptosis occurs, mitochondrial permeability pores are opened and thus mitochondrial transmembrane potential decreases (membrane potential depolarization). Mitochondrial membrane potential difference, which is an indicator of apoptosis, was measured through JC-1 staining. JC-1 enters the mitochondria in normal cells due to changes in mitochondrial membrane potential and forms a multicomplex, thereby giving it a red color, whereas when apoptosis occurs due to depolarization of the mitochondrial membrane potential, JC-1 remains in the cytoplasm and gives it a green color. Four hours before DMNQ treatment, neurons were treated with unpurified L-serine, primary purified L-serine, and secondary purified L-serine, and then treating with DMNQ for 2 hours and 30 minutes, the degree of protection of neurons was measured by measuring the mitochondrial membrane potential difference through JC-1 staining.

primary neurons = experiment: Multi-electrode array (MEA) of neuronal electrical activity under DMNQ neurotoxicity; type: cell-based, mouse; settings: FIG. 3
Experimental: After adding an equal volume of culture medium, cells were separated by a mechanical method using a pipet, and single cells were separated using a 40 µm cell strainer. After centrifugation at 2,000 rpm for 5 minutes, the supernatant was removed and resuspended in culture medium. […] A 50% PEI solution, which was prepared by mixing borate buffer and PEI in a 1:1 ratio, was diluted with a 0.1% PEI solution using borate buffer and then filtered using a 0.22 µm filter. […] Laminin stock stored at -20°C was thawed at 4°C and then diluted in serum-free medium (20 ng/mL). 40 µL of 0.1% PEI was added to each well of a 24-well MEA plate, and then the 24-well MEA plate was placed in a cell incubator at 37°C and 5% CO2 for 60 minutes. After washing the 24-well MEA plate three times with sterile DW, the laminin solution was added 50 µL per well and placed overnight in a cell incubator at 37°C and 5% CO2. After removing the laminin solution from the 24-well MEA plate, the prepared primary neurons were seeded at a concentration of 1.0 × 10^5 cells/well. […] Neuronal electrical activity was measured using the Maestro Edge system every 30 minutes for 15 minutes, and the same amount of secondary purified L-serine was pretreated for 4 hours based on 0.1 mM unpurified L-serine. After drug pretreatment for 4 hours, neuronal electrical activity was measured 4 times at 30 minute intervals during 2-hour treatment with 20 µM DMNQ, and the data was analyzed using a neural metric tool and an axis metric plotting tool. […] For the MEA, neurons were cultured on electrodes for several weeks to form a network and then the electrical signals, that is action potentials, generated from the neurons were measured. […] The primary neuronal culture was cultured in 24-well MEA plates for approximately 15 days, and when electrical signals were passed through sporadic bursts and activated into synchronous network bursts, test substances were treated at concentrations not affecting cell viability, and action potentials were measured and compared.

[1] = test system: patients with hereditary sensory and autonomic neuropathy type 1 (HSAN1); settings: cited from earlier work
[2] = test system: patients with amyotrophic lateral sclerosis (ALS); settings: cited from earlier work
[3] = test system: fetuses with 3-PGDH deficiency; settings: cited from earlier work
[4] = test system: patients with autism spectrum disorder; experiment: Phase 2 clinical trial of L-serine in children under 11 years of age; settings: 400 mg/kg for 24 weeks
[5] = test system: 5XFAD (Tg6799; five familial mutation); experiment: Survival on 9-month administration in an Alzheimer's disease animal model; type: in vivo, mice; settings: 500 mg/kg orally 5 days a week for 9 months, 3 to 12 months of age
Experimental: In order to measure the extent to which the class 1 heavy metal content in L-serine affects neurons when taken over a long period of time, long-term administration of L-serine for 9 months from the early stage of the disease (3 months of age) to 12 months of age was conducted using 5XFAD (Tg6799; five familial mutation), which is an animal model of Alzheimer's disease, and the effect of the drug on animal viability was confirmed. Specifically, WT & 5XFAD mice (purchased from The Jackson Lab) administered with saline and WT & 5XFAD mice administered with L-serine were composed of 12 mice per group. Saline and 500 mg/kg of unpurified L-serine and secondary purified L-serine were orally administered 5 days a week for 9 months, and after administration, the survival rate (%) was measured through daily observation of mice and designated as survival rate.

[6] = oral twice a day, maximum dose of 15 g/day for 6 months
[7] = 4 hours pretreatment (based on 0.1 mM unpurified L-serine), then 2-hour 20 µM DMNQ

In the case of `COC1=C(OC)C(=O)c2ccccc2C1=O` [DMNQ], the “mitochondrial damage (green)” value (HT22 cells; 20 µM DMNQ alone) was 81.4±4.2% and the “active electrodes (spikes and network bursts)” value (from here on “active electrodes”) (primary neurons; 20 µM DMNQ alone, compared to the control group) was “significantly reduced”.
For `N[C@@H](CO)C(=O)O` [L-serine], the “mitochondrial damage (green)” value (HT22 cells; 0.5 mM, pre-treated 4 hours, then 20 µM DMNQ) was 32.1±1.52%, the “mitochondrial damage (green)” value (HT22 cells; 1 mM, pre-treated 4 hours, then 20 µM DMNQ) was 18.7±11.1% and the “mitochondrial damage (green)” value (HT22 cells; 2.5 mM, pre-treated 4 hours, then 20 µM DMNQ) was 1.5±0.23%. For the same compound, the “safety and Charcot-Marie-Tooth Neuropathy Score (CMTNS)” value ([1]; 400 mg/kg/day for up to 2 years) was “effects of improving safety and Charcot-Marie-Tooth Neuropathy Score (CMTNS) were confirmed”, the “1-deoxySL (dSL)” value ([1]; oral, up to 400 mg/kg/day for 10 and 52 weeks) was “reduced” and the “progression of the patients' disease” value [2, 6] was “showed the effect of delaying the progression of the patients' disease”. For the same compound, the safety [2, 6] was “safe”, the safety ([2]; phase 2 clinical trials, up to 15 g twice a day for 6 months) was “shown to be safe” and the “brain growth in fetuses” value ([3]; maternal supply of L-serine during pregnancy) was “shown to improve brain growth”. The neurological symptoms ([3]; postnatal children (birth to 4 years old)) was “shown to prevent neurological symptoms”, the adverse reactions ([3]; pregnant women, fetuses, and newborns) was “no adverse reactions were observed” and the side effects [4] was “without any unusual side effects”. For the same compound, the treatment efficiency [4] was “about 40%”.
For `N[C@@H](CO)C(=O)O` [secondary purified L-serine, L-serine], the survival rate [5] was 80% and the “active electrodes” value (primary neurons; [7]) was “active electrodes in a state without DMNQ treatment were maintained”.
With `N[C@@H](CO)C(=O)O` [unpurified L-serine, L-serine] the survival rate [5] was 58% and the “active electrodes” value (primary neurons; [7]) was “the effect was not distinct”.
